ChEMBL document CHEMBL4507317, “Data for DCP probe BAY-899” (2021)
pKi: −log10 of the molar value.

What was measured:
[1] = molecular target: Phosphatidylinositol 4,5-bisphosphate 3-kinase catalytic subunit alpha isoform (Homo sapiens) (UniProt P42336); conditions: Compound concentration 1000.0 nM
[2] = tested on: Epidermal growth factor receptor (Homo sapiens), P00533 [UNDEFINED MUTATION]; conditions: Compound concentration 1000.0 nM
[3] = molecular target: D(3) dopamine receptor (Homo sapiens) (UniProt P35462); conditions: Compound concentration 10.0 uM
[4] = molecular target: Tyrosine-protein kinase JAK1 (Homo sapiens) (UniProt P23458); conditions: Compound concentration 1000.0 nM
[5] = molecular target: Mitogen-activated protein kinase 10 (Homo sapiens) (UniProt P53779); conditions: Compound concentration 1000.0 nM
[6] = molecular target: Cyclin-dependent kinase 16 (Homo sapiens) (UniProt Q00536); conditions: Compound concentration 1000.0 nM
[7] = molecular target: Dual specificity mitogen-activated protein kinase kinase 3 (Homo sapiens) (UniProt P46734); conditions: Compound concentration 1000.0 nM
[8] = molecular target: Mitogen-activated protein kinase kinase kinase 5 (Homo sapiens) (UniProt Q99683); conditions: Compound concentration 1000.0 nM
[9] = molecular target: Serine/threonine-protein kinase 38 (Homo sapiens) (UniProt Q15208); conditions: Compound concentration 1000.0 nM
[10] = tested on: Receptor-type tyrosine-protein kinase FLT3 (Homo sapiens), P36888 [UNDEFINED MUTATION]; conditions: Compound concentration 1000.0 nM
[11] = molecular target: LIM domain kinase 2 (Homo sapiens) (UniProt P53671); conditions: Compound concentration 1000.0 nM
[12] = molecular target: Serine/threonine-protein kinase MARK2 (Homo sapiens) (UniProt Q7KZI7); conditions: Compound concentration 1000.0 nM
[13] = molecular target: Serine/threonine-protein kinase 17A (Homo sapiens) (UniProt Q9UEE5); conditions: Compound concentration 1000.0 nM
[14] = molecular target: Serine/threonine-protein kinase WNK4 (Homo sapiens) (UniProt Q96J92); conditions: Compound concentration 1000.0 nM
[15] = molecular target: SNF-related serine/threonine-protein kinase (Homo sapiens) (UniProt Q9NRH2); conditions: Compound concentration 1000.0 nM
[16] = molecular target: Cyclin-dependent kinase 8 (Homo sapiens) (UniProt P49336); conditions: Compound concentration 1000.0 nM
[17] = molecular target: T1, Muscarinic acetylcholine receptor M4 (Homo sapiens) (UniProt P08173); conditions: Compound concentration 10.0 uM
T1 sequence (whole entry): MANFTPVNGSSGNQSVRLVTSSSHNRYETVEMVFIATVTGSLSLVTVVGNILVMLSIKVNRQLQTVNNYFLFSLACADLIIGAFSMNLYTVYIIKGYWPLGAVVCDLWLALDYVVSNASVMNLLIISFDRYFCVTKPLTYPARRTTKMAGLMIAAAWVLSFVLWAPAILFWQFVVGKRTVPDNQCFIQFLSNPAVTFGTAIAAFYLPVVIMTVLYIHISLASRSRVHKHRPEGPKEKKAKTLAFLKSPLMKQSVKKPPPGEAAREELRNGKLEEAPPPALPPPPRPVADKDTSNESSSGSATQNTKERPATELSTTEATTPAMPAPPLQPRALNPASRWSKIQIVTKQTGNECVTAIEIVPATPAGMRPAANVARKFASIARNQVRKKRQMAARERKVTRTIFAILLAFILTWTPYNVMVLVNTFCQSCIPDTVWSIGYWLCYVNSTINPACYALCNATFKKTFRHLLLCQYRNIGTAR

[18] = molecular target: Phosphorylase b kinase regulatory subunit alpha, liver isoform (Homo sapiens) (UniProt P46019); conditions: Compound concentration 1000.0 nM
[19] = molecular target: Serine/threonine-protein kinase Nek7 (Homo sapiens) (UniProt Q8TDX7); conditions: Compound concentration 1000.0 nM
[20] = molecular target: Dual specificity tyrosine-phosphorylation-regulated kinase 1A (Homo sapiens) (UniProt Q13627); conditions: Compound concentration 1000.0 nM
[21] = molecular target: Mitogen-activated protein kinase 1 (Homo sapiens) (UniProt P28482); conditions: Compound concentration 1000.0 nM
[22] = molecular target: Activin receptor type-1 (Homo sapiens) (UniProt Q04771); conditions: Compound concentration 1000.0 nM
[23] = molecular target: Non-receptor tyrosine-protein kinase TYK2 (Homo sapiens) (UniProt P29597); conditions: Compound concentration 1000.0 nM
[24] = molecular target: Tyrosine-protein kinase ZAP-70 (Homo sapiens) (UniProt P43403); conditions: Compound concentration 1000.0 nM
[25] = molecular target: Serine/threonine-protein kinase MAK (Homo sapiens) (UniProt P20794); conditions: Compound concentration 1000.0 nM
[26] = molecular target: Sigma non-opioid intracellular receptor 1 (Homo sapiens, UniProt Q99720); assay: GPCRScan assay: inhibition of Sigma 1; parameters: radioligand conc. used [nm] 4.0 – 5.0, parental cells HEKT
[27] = molecular target: T2, 5-hydroxytryptamine receptor 1A (Homo sapiens) (UniProt P08908); conditions: Compound concentration 10.0 uM
T2 sequence (whole entry): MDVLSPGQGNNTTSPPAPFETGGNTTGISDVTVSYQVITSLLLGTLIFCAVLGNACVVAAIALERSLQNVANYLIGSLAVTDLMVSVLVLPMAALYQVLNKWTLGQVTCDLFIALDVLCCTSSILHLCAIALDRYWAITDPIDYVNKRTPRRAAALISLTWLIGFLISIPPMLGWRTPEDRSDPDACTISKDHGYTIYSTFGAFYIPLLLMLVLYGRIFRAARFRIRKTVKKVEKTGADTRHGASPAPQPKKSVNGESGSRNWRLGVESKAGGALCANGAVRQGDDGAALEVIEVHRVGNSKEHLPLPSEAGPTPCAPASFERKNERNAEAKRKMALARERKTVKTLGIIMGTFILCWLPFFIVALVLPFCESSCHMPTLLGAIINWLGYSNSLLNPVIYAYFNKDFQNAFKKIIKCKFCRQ

[28] = molecular target: Serine/threonine-protein kinase MRCK gamma (Homo sapiens) (UniProt Q6DT37); conditions: Compound concentration 1000.0 nM
[29] = molecular target: Serine/threonine-protein kinase 32C (Homo sapiens) (UniProt Q86UX6); conditions: Compound concentration 1000.0 nM
[30] = molecular target: Inhibitor of nuclear factor kappa-B kinase subunit alpha (Homo sapiens) (UniProt O15111); conditions: Compound concentration 1000.0 nM
[31] = molecular target: Tyrosine-protein kinase Fes/Fps (Homo sapiens) (UniProt P07332); conditions: Compound concentration 1000.0 nM
[32] = molecular target: Tyrosine-protein kinase ABL2 (Homo sapiens) (UniProt P42684); conditions: Compound concentration 1000.0 nM
[33] = molecular target: Cyclin-dependent kinase-like 2 (Homo sapiens) (UniProt Q92772); conditions: Compound concentration 1000.0 nM
Chain of Cyclin-dependent kinase-like 2 (Homo sapiens) (Q92772 whole entry): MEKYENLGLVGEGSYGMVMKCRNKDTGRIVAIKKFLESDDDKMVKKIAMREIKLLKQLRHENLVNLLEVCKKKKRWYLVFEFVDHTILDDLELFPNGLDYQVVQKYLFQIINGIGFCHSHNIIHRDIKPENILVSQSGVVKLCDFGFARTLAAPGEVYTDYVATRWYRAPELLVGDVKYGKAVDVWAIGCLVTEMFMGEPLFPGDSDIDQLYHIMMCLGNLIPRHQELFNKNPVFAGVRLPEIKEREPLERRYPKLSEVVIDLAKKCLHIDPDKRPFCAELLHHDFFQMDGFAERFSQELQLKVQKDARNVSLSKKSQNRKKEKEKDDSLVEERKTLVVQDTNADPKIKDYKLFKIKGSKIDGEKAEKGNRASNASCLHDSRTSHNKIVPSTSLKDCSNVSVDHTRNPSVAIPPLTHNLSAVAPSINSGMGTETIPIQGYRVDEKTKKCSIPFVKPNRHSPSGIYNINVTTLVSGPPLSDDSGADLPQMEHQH

Chain of Serine/threonine-protein kinase 38 (Homo sapiens) (Q15208 2-465 limits assumed): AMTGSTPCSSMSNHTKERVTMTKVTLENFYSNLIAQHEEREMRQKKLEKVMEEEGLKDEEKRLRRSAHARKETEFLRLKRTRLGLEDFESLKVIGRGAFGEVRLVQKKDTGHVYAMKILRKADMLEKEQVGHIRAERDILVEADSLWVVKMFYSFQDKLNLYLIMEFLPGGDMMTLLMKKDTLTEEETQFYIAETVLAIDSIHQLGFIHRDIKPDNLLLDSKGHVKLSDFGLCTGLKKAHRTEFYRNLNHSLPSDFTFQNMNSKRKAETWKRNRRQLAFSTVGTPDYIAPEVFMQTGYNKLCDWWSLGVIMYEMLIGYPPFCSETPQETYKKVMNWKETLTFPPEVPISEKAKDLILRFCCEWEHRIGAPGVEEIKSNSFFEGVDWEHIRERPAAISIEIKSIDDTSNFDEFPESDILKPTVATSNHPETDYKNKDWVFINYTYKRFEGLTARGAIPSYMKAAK
Chain of SNF-related serine/threonine-protein kinase (Homo sapiens) (Q9NRH2 whole entry): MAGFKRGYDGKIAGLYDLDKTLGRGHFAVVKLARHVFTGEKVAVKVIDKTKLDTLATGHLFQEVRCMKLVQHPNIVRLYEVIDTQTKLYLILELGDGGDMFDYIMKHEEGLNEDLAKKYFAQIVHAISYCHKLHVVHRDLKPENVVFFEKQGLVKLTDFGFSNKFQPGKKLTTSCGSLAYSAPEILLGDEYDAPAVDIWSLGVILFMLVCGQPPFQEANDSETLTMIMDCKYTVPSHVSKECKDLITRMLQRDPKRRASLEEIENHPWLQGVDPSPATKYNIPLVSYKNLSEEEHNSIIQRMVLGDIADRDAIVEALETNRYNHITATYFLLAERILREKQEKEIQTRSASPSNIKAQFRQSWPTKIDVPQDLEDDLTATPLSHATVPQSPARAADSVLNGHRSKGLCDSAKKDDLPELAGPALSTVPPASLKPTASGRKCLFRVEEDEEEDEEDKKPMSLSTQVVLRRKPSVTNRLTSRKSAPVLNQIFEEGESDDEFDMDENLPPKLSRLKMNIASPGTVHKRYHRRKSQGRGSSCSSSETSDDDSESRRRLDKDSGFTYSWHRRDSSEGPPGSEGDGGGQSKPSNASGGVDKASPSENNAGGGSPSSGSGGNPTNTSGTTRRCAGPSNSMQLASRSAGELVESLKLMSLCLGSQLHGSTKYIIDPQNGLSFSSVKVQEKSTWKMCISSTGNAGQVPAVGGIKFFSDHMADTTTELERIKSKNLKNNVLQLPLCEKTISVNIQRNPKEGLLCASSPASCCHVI
Chain of Dual specificity mitogen-activated protein kinase kinase 3 (Homo sapiens) (P46734 whole entry): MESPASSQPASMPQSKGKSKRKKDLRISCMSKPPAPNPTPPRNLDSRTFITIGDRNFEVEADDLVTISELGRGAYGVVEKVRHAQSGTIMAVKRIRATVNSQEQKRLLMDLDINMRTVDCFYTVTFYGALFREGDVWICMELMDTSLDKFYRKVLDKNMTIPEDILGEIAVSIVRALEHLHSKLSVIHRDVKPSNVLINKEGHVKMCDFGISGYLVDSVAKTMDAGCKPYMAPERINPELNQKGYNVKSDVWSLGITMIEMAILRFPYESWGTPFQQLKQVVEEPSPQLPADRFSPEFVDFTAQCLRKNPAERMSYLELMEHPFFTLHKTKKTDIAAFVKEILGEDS
Chain of LIM domain kinase 2 (Homo sapiens) (P53671 whole entry, looked up, the tested form may be a part): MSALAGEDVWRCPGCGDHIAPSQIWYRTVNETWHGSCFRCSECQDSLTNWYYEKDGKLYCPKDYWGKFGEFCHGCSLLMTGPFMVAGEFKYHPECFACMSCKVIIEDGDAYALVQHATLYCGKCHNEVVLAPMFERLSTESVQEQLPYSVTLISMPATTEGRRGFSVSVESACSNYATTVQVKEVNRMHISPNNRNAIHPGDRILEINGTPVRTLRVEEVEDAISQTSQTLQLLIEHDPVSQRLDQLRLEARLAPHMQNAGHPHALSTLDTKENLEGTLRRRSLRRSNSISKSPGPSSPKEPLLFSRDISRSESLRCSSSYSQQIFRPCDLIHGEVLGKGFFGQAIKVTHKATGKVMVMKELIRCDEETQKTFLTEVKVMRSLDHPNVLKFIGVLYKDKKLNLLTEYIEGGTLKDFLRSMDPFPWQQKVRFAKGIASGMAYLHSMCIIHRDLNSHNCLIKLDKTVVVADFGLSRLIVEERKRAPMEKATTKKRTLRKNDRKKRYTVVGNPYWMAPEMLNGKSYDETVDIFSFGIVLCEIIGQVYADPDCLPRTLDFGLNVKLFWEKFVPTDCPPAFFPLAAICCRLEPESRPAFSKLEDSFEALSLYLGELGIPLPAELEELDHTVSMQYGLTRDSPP
Chain of Inhibitor of nuclear factor kappa-B kinase subunit alpha (Homo sapiens) (O15111 whole entry): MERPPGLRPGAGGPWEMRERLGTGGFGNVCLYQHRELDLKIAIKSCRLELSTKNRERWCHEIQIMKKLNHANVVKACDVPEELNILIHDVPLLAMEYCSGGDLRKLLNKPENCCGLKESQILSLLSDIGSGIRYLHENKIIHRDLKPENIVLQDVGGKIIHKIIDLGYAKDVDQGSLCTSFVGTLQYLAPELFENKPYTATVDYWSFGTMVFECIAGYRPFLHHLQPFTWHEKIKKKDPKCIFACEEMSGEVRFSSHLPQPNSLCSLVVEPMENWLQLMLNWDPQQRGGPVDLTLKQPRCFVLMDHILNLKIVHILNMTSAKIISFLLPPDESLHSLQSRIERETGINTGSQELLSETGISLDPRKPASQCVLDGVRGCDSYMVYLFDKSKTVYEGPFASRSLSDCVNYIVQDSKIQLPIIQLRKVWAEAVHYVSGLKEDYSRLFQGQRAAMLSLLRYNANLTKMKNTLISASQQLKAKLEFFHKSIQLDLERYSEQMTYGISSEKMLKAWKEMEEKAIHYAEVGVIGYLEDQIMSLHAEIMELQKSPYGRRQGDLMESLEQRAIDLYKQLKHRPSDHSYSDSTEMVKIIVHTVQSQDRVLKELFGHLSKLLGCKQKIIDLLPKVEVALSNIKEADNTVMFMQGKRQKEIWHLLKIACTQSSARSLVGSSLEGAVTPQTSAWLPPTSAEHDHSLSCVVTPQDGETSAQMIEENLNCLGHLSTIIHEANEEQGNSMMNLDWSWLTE
Chain of Tyrosine-protein kinase ABL2 (Homo sapiens) (P42684 whole entry): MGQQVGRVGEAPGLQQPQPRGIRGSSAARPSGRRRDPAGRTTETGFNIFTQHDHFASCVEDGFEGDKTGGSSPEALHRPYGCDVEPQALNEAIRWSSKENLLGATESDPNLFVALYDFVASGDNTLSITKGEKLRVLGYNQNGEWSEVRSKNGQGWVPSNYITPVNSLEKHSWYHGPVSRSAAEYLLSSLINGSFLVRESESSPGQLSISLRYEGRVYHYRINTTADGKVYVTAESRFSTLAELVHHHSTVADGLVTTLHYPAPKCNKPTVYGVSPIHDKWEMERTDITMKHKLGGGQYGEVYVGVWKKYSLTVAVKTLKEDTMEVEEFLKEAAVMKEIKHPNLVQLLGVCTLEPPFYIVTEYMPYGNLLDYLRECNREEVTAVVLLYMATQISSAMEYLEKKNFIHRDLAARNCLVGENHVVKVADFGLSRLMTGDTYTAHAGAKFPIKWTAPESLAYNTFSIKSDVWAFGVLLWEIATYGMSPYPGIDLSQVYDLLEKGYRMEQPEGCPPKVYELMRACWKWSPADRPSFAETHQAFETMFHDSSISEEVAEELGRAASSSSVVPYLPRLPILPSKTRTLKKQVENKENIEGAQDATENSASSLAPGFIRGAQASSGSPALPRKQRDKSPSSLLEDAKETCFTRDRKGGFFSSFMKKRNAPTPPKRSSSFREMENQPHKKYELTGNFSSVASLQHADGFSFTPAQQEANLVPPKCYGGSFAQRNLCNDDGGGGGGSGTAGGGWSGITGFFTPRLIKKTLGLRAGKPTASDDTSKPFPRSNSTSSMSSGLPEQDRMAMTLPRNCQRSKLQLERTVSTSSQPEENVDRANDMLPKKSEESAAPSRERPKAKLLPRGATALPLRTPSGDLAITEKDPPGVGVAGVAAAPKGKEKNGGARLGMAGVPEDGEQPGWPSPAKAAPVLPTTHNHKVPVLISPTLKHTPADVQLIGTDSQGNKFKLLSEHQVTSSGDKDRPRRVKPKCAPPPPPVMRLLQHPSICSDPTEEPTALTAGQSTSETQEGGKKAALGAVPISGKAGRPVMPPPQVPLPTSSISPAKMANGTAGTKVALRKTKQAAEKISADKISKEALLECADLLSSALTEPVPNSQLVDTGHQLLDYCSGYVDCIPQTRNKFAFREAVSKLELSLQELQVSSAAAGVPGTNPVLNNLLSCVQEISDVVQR
Chain of Serine/threonine-protein kinase Nek7 (Homo sapiens) (Q8TDX7 whole entry, looked up): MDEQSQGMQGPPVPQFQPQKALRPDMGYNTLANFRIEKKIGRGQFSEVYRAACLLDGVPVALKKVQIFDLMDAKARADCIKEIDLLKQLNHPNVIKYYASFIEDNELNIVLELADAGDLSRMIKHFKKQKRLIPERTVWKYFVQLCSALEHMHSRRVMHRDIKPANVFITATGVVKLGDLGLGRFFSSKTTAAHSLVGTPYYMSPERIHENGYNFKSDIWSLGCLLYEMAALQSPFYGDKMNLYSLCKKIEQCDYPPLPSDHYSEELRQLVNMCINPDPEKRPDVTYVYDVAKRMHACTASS

| SMILES | residual activity [1] | residual activity [2] | inhibition [3] | residual activity [4] | residual activity [5] | residual activity [6] | residual activity [7] | residual activity [8] | residual activity [9] | residual activity [10] | residual activity [11] | residual activity [12] | residual activity [13] | residual activity [14] | residual activity [15] | residual activity [16] | inhibition [17] | residual activity [18] | residual activity [19] | residual activity [20] | also measured |
| --- | --- | --- | --- | --- | --- | --- | --- | --- | --- | --- | --- | --- | --- | --- | --- | --- | --- | --- | --- | --- | --- |
| O=C(Nc1ccc(Oc2ccc(F)cc2)cc1)N1CCc2ncccc2[C@H]1c1ccc(F)cc1 [BAY-897] | 83% | 80% | -2.66% | 100% | 82% | 65% | 88% | 87% | 99% | 93% | 93% | 82% | 86% | 85% | 90% | 95% | 9.29% | 100% | 82% | 95% | residual activity [21]: 100%; residual activity [22]: 96%; residual activity [23]: 100%; residual activity [24]: 91%; residual activity [25]: 100%; pKi [26]: 5.62; inhibition [27]: -3.56%; residual activity [28]: 93%; residual activity [29]: 75%; residual activity [30]: 100%; residual activity [31]: 100%; residual activity [32]: 88%; residual activity [33]: 77% |
| O=C(Nc1cnc(Oc2ccc(F)cc2)nc1)N1CCc2ncccc2[C@@H]1c1ccc(F)cc1 [BAY-899] | 100% | 70% | -4.36% | 96% | 88% | 75% | 76% | 84% | 91% | 100% | 97% | 90% | 85% | 81% | 90% | 70% | 22.8% | 96% | 84% | 100% | residual activity [21]: 100%; residual activity [22]: 97%; residual activity [23]: 100%; residual activity [24]: 93%; residual activity [25]: 100%; pKi [26]: 5.84; inhibition [27]: -8.97%; residual activity [28]: 98%; residual activity [29]: 96%; residual activity [30]: 100%; residual activity [31]: 100%; residual activity [32]: 78%; residual activity [33]: 33% |
